Each compound was assayed on BV-2 (assay: Inhibition of LPS-induced nitric oxide production in mouse BV2 cells pretreated for 24 hrs followed by LPS-stimulation after 24 hrs by Griess assay).
Assay type: functional, cell-based

IC50 [µM]	SMILES
> 10	C/C(C=O)=C1\CC[C@](C)(O)[C@]23C[C@H](/C=C(C)/C=C/[C@@H]4[C@@H](C(C)(C)O)CC[C@@]4(C)O)O[C@H]2OCCC[C@H]13
> 10	C=C(C)[C@H]1CC[C@@](C)(O)[C@@H]1/C=C/C(C)=C/[C@H]1C[C@@]23[C@H](OCCC[C@@H]2/C(=C(\C)C=O)CC[C@]3(C)O)O1
> 10	C=C(C)[C@@H]1CC[C@](C)(O)[C@H]1/C=C/C(C)=C/[C@H]1C[C@@]23[C@H](OCCC[C@@H]2/C(=C(/C)C=O)CC[C@]3(C)O)O1
> 10	CC(/C=C/[C@@H]1[C@@H](C(C)(C)O)CC[C@@]1(C)O)=C\[C@H]1C[C@@]23[C@H](OCCC[C@@H]2/C(=C(\C)C=O)CC[C@]3(C)O)O1
> 10	CC(/C=C/[C@H]1[C@H](C(C)(C)O)CC[C@]1(C)O)=C\[C@H]1C[C@@]23[C@H](OCCC[C@@H]2/C(=C(\C)C=O)CC[C@]3(C)O)O1

Second part, the compound before the results:

SMILES	IC50 [µM]
CC(C)=CCC/C(C)=C\[C@H]1C=C(CO)[C@@H]2CC[C@]3([C@H](CCCO)/C(=C(/C)C=O)CC[C@]3(C)O)[C@@H]2O1	0.54
C=C(C)[C@H]1CC[C@@](C)(O)[C@@H]1/C=C/C(C)=C/[C@H]1C[C@@]23[C@H](OCCC[C@@H]2/C(=C(/C)C=O)CC[C@]3(C)O)O1	> 10
COc1cc(/C=C/C(=O)CC(=O)/C=C/c2ccc(O)c(OC)c2)ccc1O [CURCUMIN]	2.36

The compounds below were run on BV-2 (assay: Potency index, ratio of curcumin IC50 to compound IC50 for inhibition of LPS-induced nitric oxide production in mouse BV2 cells).
Assay type: functional

SMILES	Ratio IC50
CC(C)=CCC/C(C)=C\[C@H]1C=C(CO)[C@@H]2CC[C@]3([C@H](CCCO)/C(=C(/C)C=O)CC[C@]3(C)O)[C@@H]2O1	3
